# In patent publication US20250101023A1, “HETEROARYL DERIVATIVE AND USES THEREOF” (IUCF-HYU (INDUSTRY-UNIVERSITY COOPERATION FOUNDATION …, priority 2022, published 2025):
# Columns and labels:
# cyclinK = assay: Western blot, cyclinK degradation; format: cell-based; conditions: SK-Br3 and HCC1954 cell lines, 40 and 200 nM, 2 hours
# SK-Br3 xenograft = SK-Br3 xenograft model, anticancer efficacy; format: in vivo, mouse; conditions: 10 mg/kg and 20 mg/kg, i.p. twice a week
# Experimental: A mouse efficacy experiment was conducted after obtaining approval from the Laboratory Animal Ethics Committee of GenNBio (Review No.: GN-IACUC-Research 22-02-07). SK-Br3 and HCC-1954 cells (1×10^6 cells each) mixed with Matrigel (BD Biosciences) were […] injected into 5-week-old female Balb/c nude mice (Orient Bio, Seongnam, Republic of Korea). After tumors reached a size of about 100 mm^3, the compound, trastuzumab (20 mg/kg), and the like were intraperitoneally injected into mice (n=8 per group)(vehicle: 8% DMSO, 4% Tween-80, 88% PBS). The tumor size was measured twice weekly for about 4 weeks and calculated as follows. Volume (mm^3)=(a×b^2)/2; “a”, maximum diameter; “b”, vertical diameter
# CDK2/cyclin A1 = CDK2/cyclin A1 (Homo sapiens (Human), UniProt P24941); assay: Kinome-wide profiling; format: biochemical; conditions: read-out: % Residual Activity (mean)
# CDK3/cyclin E2 = CDK3/cyclin E2 (Homo sapiens (Human), UniProt Q00526); assay: Kinome-wide profiling; format: biochemical; conditions: read-out: % Residual Activity (mean)
# DYRK1/DYRKIA = DYRK1/DYRKIA (Homo sapiens (Human), UniProt Q13627); assay: Kinome-wide profiling; format: biochemical; conditions: read-out: % Residual Activity (mean)
# CDK2/cyclin E2 = CDK2/cyclin E2 (Homo sapiens (Human), UniProt P24941); assay: Kinome-wide profiling; format: biochemical; conditions: read-out: % Residual Activity (mean)
# ARK5/NUAK1 = ARK5/NUAK1 (Homo sapiens (Human), UniProt O60285); assay: Kinome-wide profiling; format: biochemical; conditions: read-out: % Residual Activity (mean)
# STK33 = STK33 (Homo sapiens (Human), UniProt Q9BYT3); assay: Kinome-wide profiling; format: biochemical; conditions: read-out: % Residual Activity (mean)
# TIE2/TEK = TIE2/TEK (Homo sapiens (Human), UniProt Q02763); assay: Kinome-wide profiling; format: biochemical; conditions: read-out: % Residual Activity (mean)
# MST4 = MST4 (Homo sapiens (Human), UniProt Q9P289); assay: Kinome-wide profiling; format: biochemical; conditions: read-out: % Residual Activity (mean)
# HCK = HCK (Homo sapiens (Human), UniProt P08631); assay: Kinome-wide profiling; format: biochemical; conditions: read-out: % Residual Activity (mean)
# MST3/STK24 = MST3/STK24 (Homo sapiens (Human), UniProt Q9Y6E0); assay: Kinome-wide profiling; format: biochemical; conditions: read-out: % Residual Activity (mean)
# JNK3 = JNK3 (Homo sapiens (Human), UniProt P53779); assay: Kinome-wide profiling; format: biochemical; conditions: read-out: % Residual Activity (mean)
# CAMK1g = CAMK1g (Homo sapiens (Human), UniProt Q96NX5); assay: Kinome-wide profiling; format: biochemical; conditions: read-out: % Residual Activity (mean)
# TRKC = TRKC (Homo sapiens (Human), UniProt Q16288); assay: Kinome-wide profiling; format: biochemical; conditions: read-out: % Residual Activity (mean)
# GCK/MAP4K2 = GCK/MAP4K2 (Homo sapiens (Human), UniProt Q12851); assay: Kinome-wide profiling; format: biochemical; conditions: read-out: % Residual Activity (mean)
# MLCK2/MYLK2 = MLCK2/MYLK2 (Homo sapiens (Human), UniProt Q9H1R3); assay: Kinome-wide profiling; format: biochemical; conditions: read-out: % Residual Activity (mean)
# c-Src = c-Src (Homo sapiens (Human), UniProt P12931); assay: Kinome-wide profiling; format: biochemical; conditions: read-out: % Residual Activity (mean)
# MARK4 = MARK4 (Homo sapiens (Human), UniProt Q96L34); assay: Kinome-wide profiling; format: biochemical; conditions: read-out: % Residual Activity (mean)
# PLK1 = PLK1 (Homo sapiens (Human), UniProt P53350); assay: Kinome-wide profiling; format: biochemical; conditions: read-out: % Residual Activity (mean)
# MYO3A = MYO3A (Homo sapiens (Human), UniProt Q8NEV4); assay: Kinome-wide profiling; format: biochemical; conditions: read-out: % Residual Activity (mean)
# LATS2 = LATS2 (Homo sapiens (Human), UniProt Q9NRM7); assay: Kinome-wide profiling; format: biochemical; conditions: read-out: % Residual Activity (mean)
# ITK = ITK (Homo sapiens (Human), UniProt Q08881); assay: Kinome-wide profiling; format: biochemical; conditions: read-out: % Residual Activity (mean)
# MEK5 = MEK5 (Homo sapiens (Human), UniProt Q13163); assay: Kinome-wide profiling; format: biochemical; conditions: read-out: % Residual Activity (mean)
# RON/MST1R = RON/MST1R (Homo sapiens (Human), UniProt Q04912); assay: Kinome-wide profiling; format: biochemical; conditions: read-out: % Residual Activity (mean)
# GRK4 = GRK4 (Homo sapiens (Human), UniProt P32298); assay: Kinome-wide profiling; format: biochemical; conditions: read-out: % Residual Activity (mean)
# ULK3 = ULK3 (Homo sapiens (Human), UniProt Q6PHR2); assay: Kinome-wide profiling; format: biochemical; conditions: read-out: % Residual Activity (mean)
# NEK1 = NEK1 (Homo sapiens (Human), UniProt Q96PY6); assay: Kinome-wide profiling; format: biochemical; conditions: read-out: % Residual Activity (mean)
# SNRK = SNRK (Homo sapiens (Human), UniProt Q9NRH2); assay: Kinome-wide profiling; format: biochemical; conditions: read-out: % Residual Activity (mean)
# EPHA8 = EPHA8 (Homo sapiens (Human), UniProt P29322); assay: Kinome-wide profiling; format: biochemical; conditions: read-out: % Residual Activity (mean)
# TGFBR2 = TGFBR2 (Homo sapiens (Human), UniProt P37173); assay: Kinome-wide profiling; format: biochemical; conditions: read-out: % Residual Activity (mean)
# IRAK4 = IRAK4 (Homo sapiens (Human), UniProt Q9NWZ3); assay: Kinome-wide profiling; format: biochemical; conditions: read-out: % Residual Activity (mean)
# PASK = PASK (Homo sapiens (Human), UniProt Q96RG2); assay: Kinome-wide profiling; format: biochemical; conditions: read-out: % Residual Activity (mean)
# BRSK2 = BRSK2 (Homo sapiens (Human), UniProt Q8IWQ3); assay: Kinome-wide profiling; format: biochemical; conditions: read-out: % Residual Activity (mean)
# MRCKb/CDC42BPB = MRCKb/CDC42BPB (Homo sapiens (Human), UniProt Q9Y5S2); assay: Kinome-wide profiling; format: biochemical; conditions: read-out: % Residual Activity (mean)
# Chain of RON/MST1R (Q04912 25-1400): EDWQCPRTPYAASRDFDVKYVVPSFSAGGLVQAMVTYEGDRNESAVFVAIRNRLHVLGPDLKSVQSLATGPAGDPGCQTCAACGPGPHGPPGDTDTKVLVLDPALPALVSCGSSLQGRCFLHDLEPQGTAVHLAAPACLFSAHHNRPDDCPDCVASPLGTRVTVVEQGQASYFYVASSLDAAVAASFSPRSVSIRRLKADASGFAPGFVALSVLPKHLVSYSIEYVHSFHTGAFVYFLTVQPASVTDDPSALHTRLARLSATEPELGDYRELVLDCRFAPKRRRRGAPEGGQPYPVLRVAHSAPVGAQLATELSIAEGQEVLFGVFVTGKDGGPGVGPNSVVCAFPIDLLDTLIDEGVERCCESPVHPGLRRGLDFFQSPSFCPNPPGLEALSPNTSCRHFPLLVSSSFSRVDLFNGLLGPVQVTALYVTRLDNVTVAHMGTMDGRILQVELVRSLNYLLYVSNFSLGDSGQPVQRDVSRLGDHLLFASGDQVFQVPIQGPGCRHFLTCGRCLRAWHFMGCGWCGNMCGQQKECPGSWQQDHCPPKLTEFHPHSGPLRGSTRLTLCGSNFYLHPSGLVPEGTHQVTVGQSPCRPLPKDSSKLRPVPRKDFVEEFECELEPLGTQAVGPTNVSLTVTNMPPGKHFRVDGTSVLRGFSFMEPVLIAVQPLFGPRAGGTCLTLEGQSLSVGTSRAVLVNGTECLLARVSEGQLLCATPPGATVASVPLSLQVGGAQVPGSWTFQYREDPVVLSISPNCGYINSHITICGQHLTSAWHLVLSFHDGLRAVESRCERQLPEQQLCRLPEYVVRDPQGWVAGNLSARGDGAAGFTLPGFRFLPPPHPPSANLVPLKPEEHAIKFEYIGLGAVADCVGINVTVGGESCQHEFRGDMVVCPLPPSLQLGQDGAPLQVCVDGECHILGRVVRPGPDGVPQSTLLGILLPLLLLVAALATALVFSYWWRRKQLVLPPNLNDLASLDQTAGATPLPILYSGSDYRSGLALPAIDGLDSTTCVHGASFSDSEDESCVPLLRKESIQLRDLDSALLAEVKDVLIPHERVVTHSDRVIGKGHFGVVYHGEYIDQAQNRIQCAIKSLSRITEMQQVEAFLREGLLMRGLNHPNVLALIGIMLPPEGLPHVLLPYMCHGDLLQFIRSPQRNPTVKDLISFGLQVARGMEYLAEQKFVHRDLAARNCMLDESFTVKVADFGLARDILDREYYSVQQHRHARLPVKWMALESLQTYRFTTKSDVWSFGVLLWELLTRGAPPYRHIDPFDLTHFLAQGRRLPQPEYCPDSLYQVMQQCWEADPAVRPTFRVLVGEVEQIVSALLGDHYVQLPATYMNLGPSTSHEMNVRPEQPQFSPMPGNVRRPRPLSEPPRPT
# Chain of EPHA8 (P29322 28-1005): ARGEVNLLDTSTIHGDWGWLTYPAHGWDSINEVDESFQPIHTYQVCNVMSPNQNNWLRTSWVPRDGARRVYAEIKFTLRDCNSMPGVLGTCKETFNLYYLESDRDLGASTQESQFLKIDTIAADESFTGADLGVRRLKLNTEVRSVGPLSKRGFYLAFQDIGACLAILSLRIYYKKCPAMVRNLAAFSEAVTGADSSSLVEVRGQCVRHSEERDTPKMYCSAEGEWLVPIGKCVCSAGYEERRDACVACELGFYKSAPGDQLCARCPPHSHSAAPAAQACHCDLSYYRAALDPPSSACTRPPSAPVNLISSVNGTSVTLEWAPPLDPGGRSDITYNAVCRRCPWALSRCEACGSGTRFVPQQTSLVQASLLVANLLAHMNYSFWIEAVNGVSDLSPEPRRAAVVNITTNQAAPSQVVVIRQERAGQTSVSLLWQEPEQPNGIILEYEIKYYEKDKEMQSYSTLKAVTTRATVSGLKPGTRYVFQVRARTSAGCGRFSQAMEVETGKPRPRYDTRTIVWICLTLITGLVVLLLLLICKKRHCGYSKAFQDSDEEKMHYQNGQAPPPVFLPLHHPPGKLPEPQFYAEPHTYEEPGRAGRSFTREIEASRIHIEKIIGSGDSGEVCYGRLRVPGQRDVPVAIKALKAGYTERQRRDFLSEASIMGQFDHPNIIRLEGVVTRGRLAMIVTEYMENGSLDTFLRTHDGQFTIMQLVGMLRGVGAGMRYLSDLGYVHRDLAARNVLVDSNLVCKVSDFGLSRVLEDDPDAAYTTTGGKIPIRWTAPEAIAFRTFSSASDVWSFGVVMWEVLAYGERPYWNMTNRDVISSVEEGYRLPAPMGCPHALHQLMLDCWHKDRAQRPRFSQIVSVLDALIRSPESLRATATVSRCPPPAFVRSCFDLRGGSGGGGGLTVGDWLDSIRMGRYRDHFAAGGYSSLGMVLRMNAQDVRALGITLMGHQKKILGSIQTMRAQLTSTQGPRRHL
# Chain of NEK1 (Q96PY6 whole entry): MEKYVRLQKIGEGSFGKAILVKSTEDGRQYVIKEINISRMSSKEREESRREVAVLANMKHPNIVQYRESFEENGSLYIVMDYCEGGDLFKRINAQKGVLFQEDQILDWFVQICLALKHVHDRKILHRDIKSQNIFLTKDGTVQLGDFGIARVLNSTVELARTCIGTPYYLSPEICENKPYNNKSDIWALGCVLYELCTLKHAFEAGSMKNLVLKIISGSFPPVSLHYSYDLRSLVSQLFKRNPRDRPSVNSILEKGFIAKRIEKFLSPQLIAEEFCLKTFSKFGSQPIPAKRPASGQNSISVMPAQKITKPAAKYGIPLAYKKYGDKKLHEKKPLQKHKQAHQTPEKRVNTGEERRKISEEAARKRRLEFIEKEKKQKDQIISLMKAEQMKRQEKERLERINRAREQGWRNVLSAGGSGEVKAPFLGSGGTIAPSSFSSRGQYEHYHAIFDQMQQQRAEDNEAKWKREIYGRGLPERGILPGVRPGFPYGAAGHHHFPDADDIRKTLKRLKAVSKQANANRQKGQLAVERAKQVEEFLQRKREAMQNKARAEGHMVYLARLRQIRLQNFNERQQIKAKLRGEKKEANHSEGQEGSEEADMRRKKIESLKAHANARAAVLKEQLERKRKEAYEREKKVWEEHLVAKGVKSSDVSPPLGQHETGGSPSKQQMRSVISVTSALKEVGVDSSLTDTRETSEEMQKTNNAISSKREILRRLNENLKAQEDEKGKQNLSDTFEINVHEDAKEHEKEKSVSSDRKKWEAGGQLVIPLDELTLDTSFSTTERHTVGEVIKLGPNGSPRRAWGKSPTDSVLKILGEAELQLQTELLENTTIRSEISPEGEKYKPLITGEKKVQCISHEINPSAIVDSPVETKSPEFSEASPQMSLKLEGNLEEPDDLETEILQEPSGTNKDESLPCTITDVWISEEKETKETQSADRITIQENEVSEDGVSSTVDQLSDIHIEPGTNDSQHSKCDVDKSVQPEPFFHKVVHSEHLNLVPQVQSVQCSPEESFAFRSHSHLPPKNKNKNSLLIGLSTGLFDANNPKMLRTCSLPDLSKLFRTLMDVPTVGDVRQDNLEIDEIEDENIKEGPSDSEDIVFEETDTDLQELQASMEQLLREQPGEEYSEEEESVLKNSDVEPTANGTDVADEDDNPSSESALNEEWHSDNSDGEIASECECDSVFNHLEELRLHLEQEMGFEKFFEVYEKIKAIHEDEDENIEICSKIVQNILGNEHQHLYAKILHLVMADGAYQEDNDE
# Chain of ULK3 (Q6PHR2 whole entry): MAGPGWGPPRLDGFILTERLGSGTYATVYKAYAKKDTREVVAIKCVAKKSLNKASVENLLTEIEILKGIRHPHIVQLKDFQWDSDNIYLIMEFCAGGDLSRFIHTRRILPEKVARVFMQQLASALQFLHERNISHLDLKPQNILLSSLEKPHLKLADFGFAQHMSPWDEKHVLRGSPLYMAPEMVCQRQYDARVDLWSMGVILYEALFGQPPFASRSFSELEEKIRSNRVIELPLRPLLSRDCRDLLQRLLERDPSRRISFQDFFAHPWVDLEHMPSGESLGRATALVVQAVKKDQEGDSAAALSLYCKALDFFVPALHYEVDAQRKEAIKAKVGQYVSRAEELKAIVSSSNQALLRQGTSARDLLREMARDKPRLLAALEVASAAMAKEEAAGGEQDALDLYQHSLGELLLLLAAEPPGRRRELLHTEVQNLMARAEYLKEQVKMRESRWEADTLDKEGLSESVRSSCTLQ
# Chain of TRKC (Q16288 32-839): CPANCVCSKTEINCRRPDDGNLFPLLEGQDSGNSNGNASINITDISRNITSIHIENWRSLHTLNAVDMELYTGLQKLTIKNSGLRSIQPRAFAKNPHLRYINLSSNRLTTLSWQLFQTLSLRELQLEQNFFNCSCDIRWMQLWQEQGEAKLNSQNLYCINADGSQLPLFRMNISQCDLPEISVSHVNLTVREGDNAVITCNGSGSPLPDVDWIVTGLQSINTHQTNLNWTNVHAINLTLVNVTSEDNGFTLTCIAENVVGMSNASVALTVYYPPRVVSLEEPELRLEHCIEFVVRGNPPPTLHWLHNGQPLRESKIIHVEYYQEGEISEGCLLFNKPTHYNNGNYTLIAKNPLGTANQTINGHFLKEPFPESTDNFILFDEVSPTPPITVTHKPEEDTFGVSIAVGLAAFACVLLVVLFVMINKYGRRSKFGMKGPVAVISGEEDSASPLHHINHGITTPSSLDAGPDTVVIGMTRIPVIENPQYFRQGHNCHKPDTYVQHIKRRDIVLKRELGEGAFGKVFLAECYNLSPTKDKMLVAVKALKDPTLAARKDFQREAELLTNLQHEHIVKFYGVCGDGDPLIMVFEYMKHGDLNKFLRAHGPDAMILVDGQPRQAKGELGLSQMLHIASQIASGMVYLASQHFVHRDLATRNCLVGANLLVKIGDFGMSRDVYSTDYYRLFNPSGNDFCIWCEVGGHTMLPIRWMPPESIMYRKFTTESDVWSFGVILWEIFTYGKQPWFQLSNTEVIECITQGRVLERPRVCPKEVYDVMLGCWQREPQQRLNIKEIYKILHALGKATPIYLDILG
smiles,measurement,setting,value
"CCn1cnc2c(NCc3ccc(-c4ccccn4)nc3)nc(-c3ccc(N)nc3)nc21 [Example 53, N-([2,2′-bipyridin]-5-ylmethyl)-2-(6-aminopyridin-3-yl)-9-ethyl-9H-purin-6-amine]",cyclinK degradation,cyclinK,induced cyclinK degradation
same,cyclinK degradation,cyclinK; listed as Compound 53,cyclinK levels were greatly suppressed in a dose-dependent manner
same,anticancer efficacy,SK-Br3 xenograft,anticancer efficacy in a dose-dependent manner
same,remaining activity at 10 µM,CDK2/cyclin A1,0.16%
same,remaining activity at 10 µM,CDK3/cyclin E2,2.63%
same,remaining activity at 10 µM,DYRK1/DYRKIA,3.85%
same,remaining activity at 10 µM,CDK2/cyclin E2,9.78%
same,remaining activity at 10 µM,ARK5/NUAK1,20.8%
same,remaining activity at 10 µM,STK33,33.5%
same,remaining activity at 10 µM,TIE2/TEK,34.8%
same,remaining activity at 10 µM,MST4,45.8%
same,remaining activity at 10 µM,HCK,46.5%
same,remaining activity at 10 µM,MST3/STK24,47%
same,remaining activity at 10 µM,JNK3,48.7%
same,remaining activity at 10 µM,CAMK1g,54.3%
same,remaining activity at 10 µM,TRKC,54.9%
same,remaining activity at 10 µM,GCK/MAP4K2,58.4%
same,remaining activity at 10 µM,MLCK2/MYLK2,60%
same,remaining activity at 10 µM,c-Src,60.1%
same,remaining activity at 10 µM,MARK4,66.9%
same,remaining activity at 10 µM,PLK1,68.3%
same,remaining activity at 10 µM,MYO3A,71.3%
same,remaining activity at 10 µM,LATS2,77.4%
same,remaining activity at 10 µM,ITK,81.7%
same,remaining activity at 10 µM,MEK5,84.1%
same,remaining activity at 10 µM,RON/MST1R,86.8%
same,remaining activity at 10 µM,GRK4,88.3%
same,remaining activity at 10 µM,ULK3,91.8%
same,remaining activity at 10 µM,NEK1,92.3%
same,remaining activity at 10 µM,SNRK,93%
same,remaining activity at 10 µM,EPHA8,94%
same,remaining activity at 10 µM,TGFBR2,94.5%
same,remaining activity at 10 µM,IRAK4,94.8%
same,remaining activity at 10 µM,PASK,96.3%
same,remaining activity at 10 µM,BRSK2,97.5%
same,remaining activity at 10 µM,MRCKb/CDC42BPB,99.3%
